Data as given in the supplement of paper PMC11208160.

Assay: recombinant UMI read abundance after kanamycin selection (control-corrected) (log10(CPM+1)); higher = more efficient recombination; extreme values may be limits of the assay; sequences stand for … in AGTGCAGAGAAAATCGGCCAGTTTTCTCTGCCTGCAGTCCGCATGCCGTGGGACCCCTTGGGTTCTAACCTGTTGCCTAGATTTATGCAGCGGACTGCCTTTCTCCCAAAGTGATAAACCGG…AGGTTGGTTTCACT; site = the 11-nt donor
Outline: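 Values, expressed as log10(CPM+1), derive from recombinant UMI counts converted to CPM, averaged across replicates and scaled by control-derived factors. Plating was with IPTG (0.07 mM) plus kanamycin or unselected, two replicates each. The screen pooled donor and donor-binding-loop pairs for the IS621 bridge recombinase in Escherichia coli.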
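Note: IS621 bridge recombinase in Escherichia coli cells against a fixed T5 target plasmid.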

Sequence | recombinant UMI read abundance (log10)
CCCCAGCCATGGACCGGTTTTCCCGGTAATCCGTATTTGCC (site CCCAAGCCTGG) | 0
CCCCAGCCATGGACCGGTTTTCCCGGTAATCCGTATTTGCC (site CCCCAGCCTGG) | 0
CCCCAGCCATGGACCGGTTTTCCCGGTAATCCGTATTTGCC (site CCCGAGCCTGG) | 0
CCCCAGCCATGGACCGGTTTTCCCGGTAATCCGTATTTGCC (site CCCTAGCCTGG) | 0
CCCCGTCCATGGACCGGTTTTCCCGGTAATCCGTATTTGAA (site CCCCGTCCTTT) | 0.00894
CCCGAGACATGGACCGGTTTTCCCGGTAATCCGTATTTGTT (site CCCGAGACTAA) | 0.475
CCCGAGCCATGGACCGGTTTTCCCGGTAATCCGTATTTGCC (site CCCAAGCCTGG) | 0
CCCGAGCCATGGACCGGTTTTCCCGGTAATCCGTATTTGCC (site CCCCAGCCTGG) | 0
CCCGAGCCATGGACCGGTTTTCCCGGTAATCCGTATTTGCC (site CCCGAGCCTGG) | 0
CCCGAGCCATGGACCGGTTTTCCCGGTAATCCGTATTTGCC (site CCCTAGCCTGG) | 0
CCCGGCCCATGGACCGGTTTTCCCGGTAATCCGTATTTGTT (site CACGGCCCTAA) | 0.00644
CCCGGCCCATGGACCGGTTTTCCCGGTAATCCGTATTTGTT (site CCCGGCCCTAA) | 0.1
CCCGGCCCATGGACCGGTTTTCCCGGTAATCCGTATTTGTT (site CGCGGCCCTAA) | 0.00519
CCCGGCCCATGGACCGGTTTTCCCGGTAATCCGTATTTGTT (site CTCGGCCCTAA) | 0
CCCGGGCCATGGACCGGTTTTCCCGGTAATCCGTATTTGCA (site CCCGGACCTTG) | 0
CCCGGGCCATGGACCGGTTTTCCCGGTAATCCGTATTTGCA (site CCCGGCCCTTG) | 0
CCCGGGCCATGGACCGGTTTTCCCGGTAATCCGTATTTGCA (site CCCGGGCCTTG) | 0
CCCGGGCCATGGACCGGTTTTCCCGGTAATCCGTATTTGCA (site CCCGGTCCTTG) | 0
CCCGGGGCATGGACCGGTTTTCCCGGTAATCCGTATTTGCA (site CCCGGGGCTTG) | 1.23
CCCGGTCCATGGACCGGTTTTCCCGGTAATCCGTATTTGAA (site CCCGGTCCTTA) | 0
CCCGGTCCATGGACCGGTTTTCCCGGTAATCCGTATTTGAA (site CCCGGTCCTTC) | 0.00874
CCCGGTCCATGGACCGGTTTTCCCGGTAATCCGTATTTGAA (site CCCGGTCCTTG) | 0
CCCGGTCCATGGACCGGTTTTCCCGGTAATCCGTATTTGAA (site CCCGGTCCTTT) | 0.00816
CCCGGTCCATGGACCGGTTTTCCCGGTAATCCGTATTTGCC (site CCCGGTCCTAG) | 0
CCCGGTCCATGGACCGGTTTTCCCGGTAATCCGTATTTGCC (site CCCGGTCCTCG) | 0.0293

Sequence | recombinant UMI read abundance (log10)
CCCGGTCCATGGACCGGTTTTCCCGGTAATCCGTATTTGCC (site CCCGGTCCTGG) | 0
CCCGGTCCATGGACCGGTTTTCCCGGTAATCCGTATTTGCC (site CCCGGTCCTTG) | 0.00573
CCCGTTCCATGGACCGGTTTTCCCGGTAATCCGTATTTGCA (site CCCGATCCTTG) | 0
CCCGTTCCATGGACCGGTTTTCCCGGTAATCCGTATTTGCA (site CCCGCTCCTTG) | 0
CCCGTTCCATGGACCGGTTTTCCCGGTAATCCGTATTTGCA (site CCCGGTCCTTG) | 0
CCCGTTCCATGGACCGGTTTTCCCGGTAATCCGTATTTGCA (site CCCGTTCCTTG) | 0
CCCTAACCATGGACCGGTTTTCCCGGTAATCCGTATTTGAA (site CCCTAACCTTT) | 0.0156
CCCTAACCATGGACCGGTTTTCCCGGTAATCCGTATTTGCC (site CCCTAACCTGG) | 0
CCCTAACCATGGACCGGTTTTCCCGGTAATCCGTATTTGCC (site CCCTACCCTGG) | 0
CCCTAACCATGGACCGGTTTTCCCGGTAATCCGTATTTGCC (site CCCTAGCCTGG) | 0
CCCTAACCATGGACCGGTTTTCCCGGTAATCCGTATTTGCC (site CCCTATCCTGG) | 0
CCCTACACATGGACCGGTTTTCCCGGTAATCCGTATTTGCT (site CACTACACTAG) | 0
CCCTACACATGGACCGGTTTTCCCGGTAATCCGTATTTGCT (site CCCTACACTAG) | 1.12
CCCTACACATGGACCGGTTTTCCCGGTAATCCGTATTTGCT (site CGCTACACTAG) | 0.477
CCCTACACATGGACCGGTTTTCCCGGTAATCCGTATTTGCT (site CTCTACACTAG) | 0.347
CCCTAGACATGGACCGGTTTTCCCGGTAATCCGTATTTGCC (site CCCTAGACTGG) | 1.04
CCCTAGACATGGACCGGTTTTCCCGGTAATCCGTATTTGCC (site CCCTAGCCTGG) | 0
CCCTAGACATGGACCGGTTTTCCCGGTAATCCGTATTTGCC (site CCCTAGGCTGG) | 1.18
CCCTAGACATGGACCGGTTTTCCCGGTAATCCGTATTTGCC (site CCCTAGTCTGG) | 0
CCCTAGACATGGACCGGTTTTCCCGGTAATCCGTATTTGCT (site CCCTAGACTAG) | 0.956
CCCTAGCCATGGACCGGTTTTCCCGGTAATCCGTATTTGAC (site CCCTAGCCTGA) | 0
CCCTAGCCATGGACCGGTTTTCCCGGTAATCCGTATTTGAC (site CCCTAGCCTGC) | 0
CCCTAGCCATGGACCGGTTTTCCCGGTAATCCGTATTTGAC (site CCCTAGCCTGG) | 0
CCCTAGCCATGGACCGGTTTTCCCGGTAATCCGTATTTGAC (site CCCTAGCCTGT) | 0
CCCTAGCCATGGACCGGTTTTCCCGGTAATCCGTATTTGCA (site CCCTAGCCTAG) | 0

Sequence | recombinant UMI read abundance (log10)
CCCTAGCCATGGACCGGTTTTCCCGGTAATCCGTATTTGCA (site CCCTAGCCTCG) | 0
CCCTAGCCATGGACCGGTTTTCCCGGTAATCCGTATTTGCA (site CCCTAGCCTGG) | 0
CCCTAGCCATGGACCGGTTTTCCCGGTAATCCGTATTTGCA (site CCCTAGCCTTG) | 0
CCCTAGCCATGGACCGGTTTTCCCGGTAATCCGTATTTGCG (site CCCTAGCCTAG) | 0
CCCTAGCCATGGACCGGTTTTCCCGGTAATCCGTATTTGCG (site CCCTAGCCTCG) | 0.0131
CCCTAGCCATGGACCGGTTTTCCCGGTAATCCGTATTTGCG (site CCCTAGCCTGG) | 0
CCCTAGCCATGGACCGGTTTTCCCGGTAATCCGTATTTGCG (site CCCTAGCCTTG) | 0
CCCTAGCCATGGACCGGTTTTCCCGGTAATCCGTATTTGCT (site CCCTAGCCTAG) | 0
CCCTAGCCATGGACCGGTTTTCCCGGTAATCCGTATTTGCT (site CCCTAGCCTCG) | 0
CCCTAGCCATGGACCGGTTTTCCCGGTAATCCGTATTTGCT (site CCCTAGCCTGG) | 0
CCCTAGCCATGGACCGGTTTTCCCGGTAATCCGTATTTGCT (site CCCTAGCCTTG) | 0
CCCTCAACATGGACCGGTTTTCCCGGTAATCCGTATTTGAT (site CCCTCAACTAT) | 0.00694
CCCTCAACATGGACCGGTTTTCCCGGTAATCCGTATTTGGG (site CCCTCAACTCC) | 0.0112
CCCTCCTCATGGACCGGTTTTCCCGGTAATCCGTATTTGAG (site CCCTCCTCTCT) | 0.256
CCCTCCTCATGGACCGGTTTTCCCGGTAATCCGTATTTGGG (site CCCTACTCTCC) | 0.0129
CCCTCCTCATGGACCGGTTTTCCCGGTAATCCGTATTTGGG (site CCCTCCTCTCC) | 0.487
CCCTCCTCATGGACCGGTTTTCCCGGTAATCCGTATTTGGG (site CCCTGCTCTCC) | 0
CCCTCCTCATGGACCGGTTTTCCCGGTAATCCGTATTTGGG (site CCCTTCTCTCC) | 0.00367
CCCTGATCATGGACCGGTTTTCCCGGTAATCCGTATTTGAG (site CCCTGATCTCT) | 0.248
CCCTTATCATGGACCGGTTTTCCCGGTAATCCGTATTTGGG (site CCCTTATCTCC) | 0.162
CCCTTATCATGGACCGGTTTTCCCGGTAATCCGTATTTGGG (site CCCTTCTCTCC) | 0.0199
CCCTTATCATGGACCGGTTTTCCCGGTAATCCGTATTTGGG (site CCCTTGTCTCC) | 0.0199
CCCTTATCATGGACCGGTTTTCCCGGTAATCCGTATTTGGG (site CCCTTTTCTCC) | 0
CCCTTCTCATGGACCGGTTTTCCCGGTAATCCGTATTTGGT (site CCCTTCTCTAC) | 1.32
CCCTTCTCATGGACCGGTTTTCCCGGTAATCCGTATTTGGT (site CCCTTCTCTCC) | 0.182
